PubChem BioAssay AID248 (DTP/NCI, 2004)
Inconclusive results and toxic doses are left out.

System: L1210 leukemia ip in BDF1 mice, survival T/C
Experiment: NCI In Vivo Anticancer Drug Screen. Data for tumor model L1210 Leukemia (intraperitoneal) in B6D2F1 (BDF1) mice
Details: endpoint: mean survival time, higher = longer survival
Summary of the method: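 In this screen, tumor-bearing mice given compound are compared to those given vehicle, and their survival values are reported as a treated-to-control quotient.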

[1] = dose: 100.0 mg/kg/injection, schedule: Q01DX009 (ip), vehicle: saline
[2] = dose: 100.0 mg/kg/injection, schedule: Q04DX003 (ip), vehicle: saline
[3] = dose: 200.0 mg/kg/injection, schedule: Q01DX009 (ip), vehicle: saline
[4] = dose: 200.0 mg/kg/injection, schedule: Q04DX003 (ip), vehicle: saline
[5] = dose: 400.0 mg/kg/injection, schedule: Q04DX003 (ip), vehicle: saline
[6] = dose: 100.0 mg/kg/injection, schedule: Q01DX001 (ip), vehicle: saline
[7] = dose: 100.0 mg/kg/injection, schedule: Q04DX003 (ip), vehicle: saline with Tween-80
[8] = dose: 200.0 mg/kg/injection, schedule: Q04DX003 (ip), vehicle: saline with Tween-80
[9] = dose: 400.0 mg/kg/injection, schedule: Q04DX003 (ip), vehicle: saline with Tween-80
[10] = dose: 100.0 mg/kg/injection, schedule: Q04DX002 (ip), vehicle: saline with Tween-80
[11] = dose: 200.0 mg/kg/injection, schedule: Q04DX002 (ip), vehicle: saline with Tween-80
[12] = dose: 400.0 mg/kg/injection, schedule: Q04DX002 (ip), vehicle: saline with Tween-80

Which results are given for `O=C(Nc1cnc2ccccc2c1)Nc1cnc2ccccc2c1`?
T/C (dose: 87.5 mg/kg/injection, schedule: Q01DX009 (ip), vehicle: Klucel (hydroxypropylcellulose) (HPC)): 87 % of control; T/C (dose: 175.0 mg/kg/injection, schedule: Q01DX009 (ip), vehicle: Klucel (hydroxypropylcellulose) (HPC)): 97 % of control; T/C (dose: 350.0 mg/kg/injection, schedule: Q01DX009 (ip), vehicle: Klucel (hydroxypropylcellulose) (HPC)): 89 % of control

What does the source list for `CCOc1ccc(Nc2ncnc3nc[nH]c23)cc1CN(CCCl)CCCl`?
T/C (dose: 1.2 mg/kg/injection, schedule: Q01DX Z (ip), vehicle: carboxymethylcellulose (CMC)): 98 % of control; T/C (dose: 1.3 mg/kg/injection, schedule: Q01DX Z (ip), vehicle: carboxymethylcellulose (CMC)): 114 % of control; T/C (dose: 1.56 mg/kg/injection, schedule: Q04DX003 (ip), vehicle: saline): 113 % of control; T/C (dose: 1.9 mg/kg/injection, schedule: Q01DX Z (ip), vehicle: carboxymethylcellulose (CMC)): 117 % of control; T/C (dose: 2.5 mg/kg/injection, schedule: Q01DX Z (ip), vehicle: carboxymethylcellulose (CMC)): 103 % of control; T/C (dose: 3.3 mg/kg/injection, schedule: Q04DX003 (ip), vehicle: saline): 111 % of control; T/C (dose: 4.2 mg/kg/injection, schedule: Q01DX Z (ip), vehicle: carboxymethylcellulose (CMC)): 116 % of control; T/C (dose: 5.0 mg/kg/injection, schedule: Q01DX001 (ip), vehicle: carboxymethylcellulose (CMC)): 104 % of control; T/C (dose: 5.0 mg/kg/injection, schedule: Q01DX Z (ip), vehicle: carboxymethylcellulose (CMC)): 116 % of control; T/C (dose: 5.0 mg/kg/injection, schedule: Q04DX003 (ip), vehicle: saline): 122 % of control; T/C (dose: 7.5 mg/kg/injection, schedule: Q04DX003 (ip), vehicle: saline): 121 % of control; T/C (dose: 10.0 mg/kg/injection, schedule: Q01DX001 (ip), vehicle: carboxymethylcellulose (CMC)): 102 % of control; T/C (dose: 10.0 mg/kg/injection, schedule: Q01DX Z (ip), vehicle: carboxymethylcellulose (CMC)): 110 % of control; T/C (dose: 20.0 mg/kg/injection, schedule: Q01DX001 (ip), vehicle: carboxymethylcellulose (CMC)): 109 % of control; T/C (dose: 40.0 mg/kg/injection, schedule: Q01DX001 (ip), vehicle: carboxymethylcellulose (CMC)): 102 % of control

`N#CC1CS(=O)(=O)C1` was tested. Which T/C [1] did it give?
The T/C was 108 % of control.

What about the T/C [2] of the same molecule?
Its T/C is 106 % of control.

And the T/C [3]?
Its T/C is 103 % of control.

And the T/C [4]?
Its T/C is 101 % of control.

And the T/C [5]?
Its T/C is 102 % of control.

What does the source list for `NC(=O)NCCNC(N)=O`?
T/C [1]: 108 % of control; T/C [2]: 97 % of control; T/C [3]: 110 % of control; T/C [4]: 105 % of control; T/C (dose: 400.0 mg/kg/injection, schedule: Q01DX009 (ip), vehicle: saline): 108 % of control; T/C [5]: 103 % of control

With `OC(c1nc2ccc(Cl)cc2[nH]1)C(O)C(O)C(O)c1nc2ccc(Cl)cc2[nH]1` (configuration not stated) as the molecule, how does the T/C (dose: 100.0 mg/kg/injection, schedule: Q01DX001 (ip), vehicle: carboxymethylcellulose (CMC)) read?
Its T/C is 90 % of control.

What about the T/C (dose: 200.0 mg/kg/injection, schedule: Q01DX001 (ip), vehicle: carboxymethylcellulose (CMC)) of the same molecule?
The T/C was 101 % of control.

And the T/C (dose: 400.0 mg/kg/injection, schedule: Q01DX001 (ip), vehicle: carboxymethylcellulose (CMC))?
Its T/C is 103 % of control.

For `Cc1ccc(NC(=O)Oc2cccnc2)cc1`, which T/C (dose: 12.5 mg/kg/injection, schedule: Q01DX009 (ip), vehicle: Klucel (hydroxypropylcellulose) (HPC)) is on record?
Its T/C is 107 % of control.

What about the T/C (dose: 25.0 mg/kg/injection, schedule: Q01DX009 (ip), vehicle: Klucel (hydroxypropylcellulose) (HPC)) of the same molecule?
The T/C was 107 % of control.

And the T/C (dose: 50.0 mg/kg/injection, schedule: Q01DX009 (ip), vehicle: Klucel (hydroxypropylcellulose) (HPC))?
The T/C was 96 % of control.

`COc1ccccc1NC(=O)OCc1ccco1` was tested. Which T/C (dose: 100.0 mg/kg/injection, schedule: Q01DX009 (ip), vehicle: other) did it give?
Its T/C is 106 % of control.

What about the T/C (dose: 200.0 mg/kg/injection, schedule: Q01DX009 (ip), vehicle: other) of the same molecule?
Its T/C is 101 % of control.

What about the T/C (dose: 400.0 mg/kg/injection, schedule: Q01DX009 (ip), vehicle: other) of the same molecule?
Its T/C is 104 % of control.

How did the T/C (dose: 100.0 mg/kg/injection, schedule: Q04DX002 (ip), vehicle: Klucel (hydroxypropylcellulose) (HPC)) turn out when `COC1OC(COS(C)(=O)=O)C(OS(C)(=O)=O)C(OC(=O)c2ccccc2)C1OS(C)(=O)=O` (configuration not stated) was run?
The T/C was 111 % of control.

What about the T/C (dose: 200.0 mg/kg/injection, schedule: Q04DX002 (ip), vehicle: Klucel (hydroxypropylcellulose) (HPC)) of the same molecule?
The T/C was 97 % of control.

And the T/C (dose: 400.0 mg/kg/injection, schedule: Q04DX002 (ip), vehicle: Klucel (hydroxypropylcellulose) (HPC))?
Its T/C is 97 % of control.

For `CN(CS(=O)(=O)O)c1cc(F)cc(F)c1`, which T/C (dose: 50.0 mg/kg/injection, schedule: Q01DX001 (ip), vehicle: saline) is on record?
The T/C was 102 % of control.

What about the T/C [6] of the same molecule?
Its T/C is 102 % of control.

What about the T/C (dose: 200.0 mg/kg/injection, schedule: Q01DX001 (ip), vehicle: saline) of the same molecule?
The T/C was 98 % of control.

And the T/C (dose: 400.0 mg/kg/injection, schedule: Q01DX001 (ip), vehicle: saline)?
The T/C was 98 % of control.

Which results are given for `O=C1c2ccccc2C(=O)N1CNc1ccc2c(c1)OCO2`?
T/C (dose: 50.0 mg/kg/injection, schedule: Q01DX009 (ip), vehicle: saline with Tween-80): 108 % of control; T/C (dose: 100.0 mg/kg/injection, schedule: Q01DX009 (ip), vehicle: saline with Tween-80): 97 % of control; T/C (dose: 200.0 mg/kg/injection, schedule: Q01DX009 (ip), vehicle: saline with Tween-80): 90 % of control

For `CCC(C)(C)c1ccc(OCCCCCCN2CCN(c3ccc(C)c(Cl)c3)CC2)cc1`, which T/C (dose: 75.0 mg/kg/injection, schedule: Q01DX001 (ip), vehicle: saline) is on record?
The T/C was 102 % of control.

What about the T/C (dose: 150.0 mg/kg/injection, schedule: Q01DX001 (ip), vehicle: saline) of the same molecule?
Its T/C is 110 % of control.

What does the source list for `O=c1[nH]/c(=C\c2ccc3c(c2)OCO3)c(=O)[nH]/c1=C\c1ccc2c(c1)OCO2`?
T/C (dose: 100.0 mg/kg/injection, schedule: Q01DX009 (ip), vehicle: Klucel (hydroxypropylcellulose) (HPC)): 94 % of control; T/C (dose: 100.0 mg/kg/injection, schedule: Q04DX003 (ip), vehicle: Klucel (hydroxypropylcellulose) (HPC)): 93 % of control; T/C (dose: 200.0 mg/kg/injection, schedule: Q01DX009 (ip), vehicle: Klucel (hydroxypropylcellulose) (HPC)): 86 % of control; T/C (dose: 200.0 mg/kg/injection, schedule: Q04DX003 (ip), vehicle: Klucel (hydroxypropylcellulose) (HPC)): 96 % of control; T/C (dose: 400.0 mg/kg/injection, schedule: Q01DX009 (ip), vehicle: Klucel (hydroxypropylcellulose) (HPC)): 89 % of control; T/C (dose: 400.0 mg/kg/injection, schedule: Q04DX003 (ip), vehicle: Klucel (hydroxypropylcellulose) (HPC)): 98 % of control

How did the T/C [7] turn out when `O=C1CCC2=C(CCCCCC2)N1c1ccccc1` was run?
The T/C was 110 % of control.

What about the T/C [8] of the same molecule?
The T/C was 110 % of control.

And the T/C [9]?
Its T/C is 98 % of control.

With `CC1CN1S(=O)(=O)N1CC1C` (configuration not stated) as the molecule, how does the T/C (dose: 50.0 mg/kg/injection, schedule: Q01DX001 (ip), vehicle: carboxymethylcellulose (CMC)) read?
The T/C was 111 % of control.

For `C=C(Br)C(C)N` (configuration not stated), which T/C [1] is on record?
The T/C was 104 % of control.

`C=CC(=O)NC(C)=O` was tested. Which T/C (dose: 12.5 mg/kg/injection, schedule: Q04DX002 (ip), vehicle: Klucel (hydroxypropylcellulose) (HPC)) did it give?
The T/C was 103 % of control.

And the T/C (dose: 25.0 mg/kg/injection, schedule: Q04DX002 (ip), vehicle: Klucel (hydroxypropylcellulose) (HPC))?
The T/C was 92 % of control.

And the T/C (dose: 50.0 mg/kg/injection, schedule: Q04DX002 (ip), vehicle: Klucel (hydroxypropylcellulose) (HPC))?
Its T/C is 95 % of control.

How did the T/C (dose: 2.25 mg/kg/injection, schedule: Q01DX Z (ip), vehicle: carboxymethylcellulose (CMC)) turn out when `CN=C(N)c1ccc(N=C(N)c2ccc(-c3ccc(C(N)=Nc4ccc(C(N)=NC)cc4)cc3)cc2)cc1` was run?
The T/C was 109 % of control.

And the T/C (dose: 4.5 mg/kg/injection, schedule: Q01DX Z (ip), vehicle: carboxymethylcellulose (CMC))?
The T/C was 115 % of control.

What about the T/C (dose: 18.0 mg/kg/injection, schedule: Q01DX Z (ip), vehicle: carboxymethylcellulose (CMC)) of the same molecule?
Its T/C is 184 % of control.

And the T/C (dose: 50.0 mg/kg/injection, schedule: Q01DX Z (oral), vehicle: water)?
The T/C was 101 % of control.

What about the T/C (dose: 100.0 mg/kg/injection, schedule: Q01DX Z (oral), vehicle: water) of the same molecule?
Its T/C is 112 % of control.

And the T/C (dose: 200.0 mg/kg/injection, schedule: Q01DX Z (oral), vehicle: water)?
Its T/C is 107 % of control.

What does the source list for `O=C(C[n+]1ccccc1)c1ccc(Br)cc1`?
T/C (dose: 50.0 mg/kg/injection, schedule: Q01DX009 (ip), vehicle: saline): 101 % of control; T/C [6]: 101 % of control; T/C [1]: 105 % of control

How did the T/C [10] turn out when `OCCNc1nn2ccnc2c2ccccc12` was run?
Its T/C is 92 % of control.

And the T/C [11]?
Its T/C is 92 % of control.

And the T/C [12]?
The T/C was 92 % of control.

`O=Cc1ccc2ccc3cccc4ccc1c2c34` was tested. Which T/C [10] did it give?
The T/C was 98 % of control.

What about the T/C [11] of the same molecule?
The T/C was 95 % of control.

And the T/C [12]?
The T/C was 95 % of control.

What does the source list for `O=C(CC(O)(C(F)(F)F)C(F)(F)F)c1ccccc1Cl`?
T/C [7]: 97 % of control; T/C [8]: 101 % of control; T/C [9]: 101 % of control
